Patent publication US4868181A, “1,4-dihydropyridine derivatives with calcium agonist and alpha1 -antagonist activity” (E. I. Du Pont de Nemours and Company, priority 1987, dated 1989)

Experiments:
Ca^2 + channels = biological target: T1, Ca^2 + channels (Rattus norvegicus, UniProt P22002); experiment: [^3 H]-Nitrendipine binding assay (affinity for calcium channels); details: rat cardiac microsomes, 0.5 nM [^3 H]-nitrendipine, 60 minutes at 25°
T1 construct: rat cardiac microsomes (source of Ca^2 + channels); from tissue; host or cells: rat cardiac microsomes
T1 sequence (P22002 whole entry, other chains not shown): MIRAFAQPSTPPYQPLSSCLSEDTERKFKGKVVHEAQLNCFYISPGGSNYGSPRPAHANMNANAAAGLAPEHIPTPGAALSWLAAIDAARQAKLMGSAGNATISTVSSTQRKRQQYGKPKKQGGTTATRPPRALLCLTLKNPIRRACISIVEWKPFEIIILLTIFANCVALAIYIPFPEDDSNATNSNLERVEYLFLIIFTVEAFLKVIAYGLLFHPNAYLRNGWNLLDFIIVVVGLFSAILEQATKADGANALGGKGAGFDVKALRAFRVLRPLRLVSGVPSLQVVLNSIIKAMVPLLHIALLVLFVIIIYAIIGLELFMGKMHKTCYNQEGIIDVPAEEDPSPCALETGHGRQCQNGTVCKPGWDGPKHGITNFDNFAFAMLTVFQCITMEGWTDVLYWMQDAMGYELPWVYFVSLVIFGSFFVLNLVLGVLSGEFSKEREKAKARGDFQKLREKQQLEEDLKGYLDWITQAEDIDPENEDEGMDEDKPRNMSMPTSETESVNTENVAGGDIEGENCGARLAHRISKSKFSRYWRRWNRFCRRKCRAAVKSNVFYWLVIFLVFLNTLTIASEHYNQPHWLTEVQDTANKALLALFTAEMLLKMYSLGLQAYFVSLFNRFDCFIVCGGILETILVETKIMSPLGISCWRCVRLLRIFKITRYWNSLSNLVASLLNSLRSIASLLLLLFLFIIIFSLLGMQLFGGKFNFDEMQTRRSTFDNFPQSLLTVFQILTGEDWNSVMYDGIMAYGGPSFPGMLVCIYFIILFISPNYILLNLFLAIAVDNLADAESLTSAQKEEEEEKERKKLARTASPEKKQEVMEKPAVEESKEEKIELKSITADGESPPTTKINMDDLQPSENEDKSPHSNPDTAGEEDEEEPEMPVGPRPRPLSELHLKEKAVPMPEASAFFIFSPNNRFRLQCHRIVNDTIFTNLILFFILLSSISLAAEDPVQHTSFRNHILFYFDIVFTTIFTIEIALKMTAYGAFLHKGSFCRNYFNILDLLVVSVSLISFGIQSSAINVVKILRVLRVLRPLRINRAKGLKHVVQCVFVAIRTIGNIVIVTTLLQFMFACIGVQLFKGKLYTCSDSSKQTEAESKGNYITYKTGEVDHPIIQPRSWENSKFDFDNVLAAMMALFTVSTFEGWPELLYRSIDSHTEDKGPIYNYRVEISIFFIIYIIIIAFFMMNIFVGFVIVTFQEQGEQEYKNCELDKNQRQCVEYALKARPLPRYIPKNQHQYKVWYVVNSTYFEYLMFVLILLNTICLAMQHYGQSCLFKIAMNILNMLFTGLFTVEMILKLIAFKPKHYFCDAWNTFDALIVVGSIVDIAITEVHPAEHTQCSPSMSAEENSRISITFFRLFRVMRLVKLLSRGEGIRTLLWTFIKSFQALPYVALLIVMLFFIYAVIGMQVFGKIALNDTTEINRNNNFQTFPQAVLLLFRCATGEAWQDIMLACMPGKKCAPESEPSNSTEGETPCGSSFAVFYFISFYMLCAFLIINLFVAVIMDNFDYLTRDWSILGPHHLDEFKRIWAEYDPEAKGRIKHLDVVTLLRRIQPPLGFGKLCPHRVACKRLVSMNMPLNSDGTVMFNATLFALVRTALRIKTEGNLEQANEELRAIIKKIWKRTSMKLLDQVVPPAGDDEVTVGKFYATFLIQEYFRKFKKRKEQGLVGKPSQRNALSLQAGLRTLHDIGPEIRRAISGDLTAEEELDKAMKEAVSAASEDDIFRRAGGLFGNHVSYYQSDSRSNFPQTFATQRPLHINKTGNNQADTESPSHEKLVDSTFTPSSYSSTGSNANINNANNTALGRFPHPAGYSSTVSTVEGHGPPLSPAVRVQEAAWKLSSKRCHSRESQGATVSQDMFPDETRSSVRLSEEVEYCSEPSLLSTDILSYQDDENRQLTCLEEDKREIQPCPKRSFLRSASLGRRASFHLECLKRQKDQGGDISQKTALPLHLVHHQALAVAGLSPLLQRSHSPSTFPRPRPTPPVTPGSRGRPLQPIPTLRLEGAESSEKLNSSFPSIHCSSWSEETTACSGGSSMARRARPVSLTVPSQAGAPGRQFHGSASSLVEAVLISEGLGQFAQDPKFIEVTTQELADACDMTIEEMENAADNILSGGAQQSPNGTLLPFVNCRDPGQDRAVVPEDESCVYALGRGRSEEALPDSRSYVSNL
T1 sequence (P54290 25-944 partner limits assumed, other chains not shown): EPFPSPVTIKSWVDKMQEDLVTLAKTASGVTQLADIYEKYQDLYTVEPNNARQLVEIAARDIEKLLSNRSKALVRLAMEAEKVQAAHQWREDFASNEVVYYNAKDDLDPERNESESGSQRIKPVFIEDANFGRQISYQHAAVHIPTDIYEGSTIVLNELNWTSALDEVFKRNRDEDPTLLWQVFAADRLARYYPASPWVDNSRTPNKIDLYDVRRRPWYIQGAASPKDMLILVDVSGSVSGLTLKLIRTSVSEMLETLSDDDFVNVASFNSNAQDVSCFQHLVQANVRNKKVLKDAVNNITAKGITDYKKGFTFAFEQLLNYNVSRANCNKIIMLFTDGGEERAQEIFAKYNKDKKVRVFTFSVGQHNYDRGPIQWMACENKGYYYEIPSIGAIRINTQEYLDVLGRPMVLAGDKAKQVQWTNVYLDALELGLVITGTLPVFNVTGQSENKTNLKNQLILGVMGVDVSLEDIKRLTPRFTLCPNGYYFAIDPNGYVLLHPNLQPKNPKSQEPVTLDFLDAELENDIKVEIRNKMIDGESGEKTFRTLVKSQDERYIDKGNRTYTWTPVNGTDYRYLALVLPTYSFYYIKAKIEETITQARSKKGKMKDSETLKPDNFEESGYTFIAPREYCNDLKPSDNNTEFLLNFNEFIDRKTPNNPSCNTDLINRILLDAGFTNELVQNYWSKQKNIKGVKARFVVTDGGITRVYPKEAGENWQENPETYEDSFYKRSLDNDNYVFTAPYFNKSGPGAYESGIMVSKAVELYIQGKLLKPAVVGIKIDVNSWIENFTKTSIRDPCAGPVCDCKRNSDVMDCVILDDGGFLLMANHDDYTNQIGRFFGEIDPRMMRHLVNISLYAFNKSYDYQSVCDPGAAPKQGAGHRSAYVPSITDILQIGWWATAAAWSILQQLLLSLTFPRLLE
T1 sequence (P54290 945-1091 partner limits assumed, other chains not shown): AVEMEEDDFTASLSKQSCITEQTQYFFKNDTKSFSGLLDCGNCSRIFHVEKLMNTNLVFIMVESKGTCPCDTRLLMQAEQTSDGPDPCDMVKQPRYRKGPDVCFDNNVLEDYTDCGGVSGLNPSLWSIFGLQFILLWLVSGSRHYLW
Description: [^3 H]-Nitrendipine binding assay was carried out according to the method described by G. T. Bolger, et al., Biochem. Biophys. Res. Comm., 104, 1604-1609, 1982 (1). The reaction mixture contained rat cardiac microsomes (source of Ca^2 + channels), 0.5 nM [^3 H]-nitrendipinewith or without potential displacer in Tris buffer. The mixture was incubated for 60 minutes at 25° and subsequently terminated by rapid filtration through a glass fiber-filter. Membrane-bound [^3 H]-nitrendipine trapped in the filter was quantitated by scintillation counting. The inhibitory concentration (IC50) of potential displacer which gives 50% displacement of the total specifically bound [^3 H]-nitrendipine is presented as a measure of the affinity of such compound for the Ca^2 + channel.

guinea pig left atria = experiment: Positive inotropic effect in guinea pig left atria; details: 37°; for EC50: left atria paced at 2Hz, cumulative addition to maximum 10^-4, read-out: EC50 (concentration that increases DT by 50% above the control DT); for Intrinsic Activity (ratio of the maximum effect of the test compound to that of Bay K 8644): relative to Bay K 8644, left atria paced at 2Hz
Description: Guinea pigs are killed by cervical dislocation. The left atria are removed and mounted at 1 gm resting tension in tissue baths containing oxygenated Krebs bicarbonate solution which is kept at 37°. The left atria are electrically paced at 2Hz with square wave pulses of 1 msec duration. The voltage is set at 1.5× threshold level.
After a one hour equilibration period, control values for developed tension (DT, gm) are recorded. Test compounds are then added to the baths, in a cumulative manner to a maximum concentration of 10^-4, to obtain a concentration-response curve. Treatment values of DT are obtained after the rug effect has reached a plateau and the exposure time for each concentration is 5-8 minutes. Percent change of the treatment value from the control value is calculated at each concentration of the test compound.

alpha1 -adrenoceptors = experiment: [^3 H]-prazosin binding assay (affinity for alpha1-adrenoceptors); details: rat brain membranes, 0.2 nM [^3 H]-prazosin, 60 minutes at 25°
Description: The [^3 H]-prazosin binding assay was carried out according to the method described by Timmermans, P. B. M. W. M., Schoop, A. M. C., and Van Zwieten, P. A.: Biochem Pharmacol., 31, 899-905, 1982 (1). The reaction mixture contained partially purified rat brain membranes (source of alpha1 -adrenoceptors), 0.2 nM [^3 H]-prazosin with or without potential displacer in Tris buffer. The mixture was incubated for 60 minutes at 25° and subsequently terminated by rapid filtration through glass fiber-filter. Receptor-bound [^3 H]-prazosin trapped in the filter was quantitated by scintillation counting. The inhibitory concentration (IC50) of potential displacer which gives 50% displacement of the total specifically bound [^3 H]-prazosin is presented as a measure of the affinity of such compound for the alpha1 -adrenoceptor.

Compound	IC50 (Ca^2 + channels) [nM]	EC50 (guinea pig left atria) [nM]	IC50 (alpha1 -adrenoceptors) [nM]	Intrinsic Activity (ratio of the maximum effect of the test compound to that of Bay K 8644) (guinea pig left atria) [%]
COC(=O)C1=C(C)NC(C)=C([N+](=O)[O-])C1c1cccc(OC)c1OCCN1CCN(c2ccccc2OC)CC1 (stereo not shown) [Example 87]	2900	> 100000	48	0
COC(=O)C1=C(C)NC(C)=C([N+](=O)[O-])C1c1cccc(OCCCN2CCN(c3ccccc3OC)CC2)c1 (stereo not shown) [Example 89]	4000	20000	71	20
COC(=O)C1=C(C)NC(C)=C([N+](=O)[O-])C1c1ccccc1OCCCCN1CCN(c2ccccn2)CC1 (stereo not shown) [Example 116]	580	> 100000	500	0
COC(=O)C1=C(C)NC(C)=C([N+](=O)[O-])C1c1ccccc1OCCCCCN1CCN(c2ccccc2OC)CC1 (stereo not shown) [Example 59, 1,4-dihydro-2,6-dimethyl-4[2-(5-(4-(2-methoxyphenyl)-1-piperazinyl)pentoxyl)-phenyl]-5-nitro-methyl ester-3-pyridinecarboxylic acid]	290	1000	130	35
CCOc1cccc(C2C(C(=O)OC)=C(C)NC(C)=C2[N+](=O)[O-])c1OCCCN1CCN(c2ccccc2OC)CC1 (stereo not shown) [Example 108]	990	> 100000	1200	0
COC(=O)C1=C(C)NC(C)=C([N+](=O)[O-])C1c1cccc(OCCCN2CCN(c3ccccn3)CC2)c1 (stereo not shown) [Example 128]	5700		100	
COC(=O)C1=C(C)NC(C)=C([N+](=O)[O-])C1c1cccc(OCCN2CCN(c3ccccc3OC)CC2)c1 (stereo not shown) [Example 69]	4600	> 100000	350	10
COC(=O)C1=C(C)NC(C)=C([N+](=O)[O-])C1c1cccc(OCCCN2CCN(c3ccccc3Cl)CC2)c1 (stereo not shown) [Example 132]	2300		130	
COC(=O)C1=C(C)NC(C)=C([N+](=O)[O-])C1c1cccc(OC)c1OC/C=C\CN1CCN(c2ccccc2OC)CC1 (stereo not shown) [Example 114]	1600	> 100000	240	0
COC(=O)C1=C(C)NC(C)=C([N+](=O)[O-])C1c1cccc(OC)c1OCCCN1CCN(c2ccccc2OC)CC1 (stereo not shown) [Example 106]	250	> 100000	140	0
COc1ccccc1N1CCN(CCCCOc2ccccc2C2C(C(=O)Nc3ccccc3)=C(C)NC(C)=C2[N+](=O)[O-])CC1 (stereo not shown) [Example 115]	110000		130	
COC(=O)C1=C(C)NC(C)=C([N+](=O)[O-])C1c1cccc(OCCCN2CCN(c3ccccc3C)CC2)c1 (stereo not shown) [Example 131]	3600		150	
COC(=O)C1=C(C)NC(C)=C([N+](=O)[O-])C1c1ccccc1OCCN1CCN(c2ncccn2)CC1 (stereo not shown) [Example 154]	1400		9300	
COC(=O)C1=C(C)NC(C)=C([N+](=O)[O-])C1c1ccccc1OCCCCCN1CCN(c2ncccn2)CC1 (stereo not shown) [Example 155]	250		2600	
COc1ccccc1N1CCN(CCCOc2cccc(C3C(C(=O)Nc4ccccc4)=C(C)NC(C)=C3[N+](=O)[O-])c2)CC1 (stereo not shown) [Example 122]	> 10000		230	
COC(=O)C1=C(C)NC(C)=C([N+](=O)[O-])C1c1cccc(OCCCN2CCN(c3ccccc3OC)CC2)c1[N+](=O)[O-] (stereo not shown) [Example 149]	8900		290	
COC(=O)C1=C(C)NC(C)=C([N+](=O)[O-])C1c1ccc(OCCCN2CCN(c3ccccc3OC)CC2)cc1 (stereo not shown) [Example 135]	6700		430	
COC(=O)C1=C(C)NC(C)=C([N+](=O)[O-])C1c1cccc(OC)c1OCC=CCN1CCN(c2ncccn2)CC1 (stereo not shown) [Example 121]	3000		8200	

Second part, led by results:

IC50 (Ca^2 + channels) [nM]	EC50 (guinea pig left atria) [nM]	IC50 (alpha1 -adrenoceptors) [nM]	Compound	Intrinsic Activity (ratio of the maximum effect of the test compound to that of Bay K 8644) (guinea pig left atria) [%]
850	> 100000	190	COC(=O)C1=C(C)NC(C)=C([N+](=O)[O-])C1c1cccc(OC)c1OCCCCCN1CCN(c2ccccc2OC)CC1 (stereo not shown) [Example 111]	0
300	6000	300	COc1ccccc1N1CCN(CCCCOC(=O)C2=C(C)NC(C)=C([N+](=O)[O-])C2c2ccccc2C(F)(F)F)CC1 (stereo not shown) [Example 56]	100
850	1900	130	COC(=O)C1=C(C)NC(C)=C([N+](=O)[O-])C1c1ccccc1OCCN1CCN(c2ccccc2OC)CC1 (stereo not shown) [Example 58]	90
3300	> 100000	570	COC(=O)C1=C(C)NC(C)=C([N+](=O)[O-])C1c1cccc(OCCCCCN2CCN(c3ccccc3OC)CC2)c1 (stereo not shown) [Example 113]	0
4800	2000	260	COC(=O)C1=C(C)NC(C)=C([N+](=O)[O-])C1c1ccccc1OCCCN1CCN(c2ccccc2OC)CC1 (stereo not shown) [Example 88]	50
4100	> 100000	410	COC(=O)C1=C(C)NC(C)=C([N+](=O)[O-])C1c1cccc(OCCCCN2CCN(c3ccccc3OC)CC2)c1 (stereo not shown) [Example 107]	0
67	> 100000	1100	COC(=O)C1=C(C)NC(C)=C([N+](=O)[O-])C1c1ccccc1OCCCCCCCCCCN1CCN(c2ccccc2OC)CC1 (stereo not shown) [Example 61, 1,4-dihydro-2,6-dimethyl-4[2(10-(4-(2-methoxyphenyl)-piperazinyl)decyloxy)phenyl]-5-nitro-methyl ester-3-pyridinecarboxylic acid]	10
29	44	800	COc1ccccc1N1CCN(CCOC(=O)C2=C(C)NC(C)=C([N+](=O)[O-])C2c2ccccc2C(F)(F)F)CC1 (stereo not shown) [Example 2, 1,4-Dihydro-2,6-Dimethyl-5-nitro-4-[2-(trifluoromethyl)phenyl]-[2-[4-(2-methoxyphenyl)-1-piperazinyl]ethyl]ester-3-pyridinecarboxylic acid]	145
180	> 100000	250	COC(=O)C1=C(C)NC(C)=C([N+](=O)[O-])C1c1cc(Br)ccc1OCCCCN1CCN(c2ccccc2OC)CC1 (stereo not shown) [Example 142]	0
990		970	COc1ccccc1N1CCN(CCCCOC(=O)C2=C(C)NC(C)=C([N+](=O)[O-])C2c2cccc(C(F)(F)F)c2)CC1 (stereo not shown) [Example 57]	
540		850	COC(=O)C1=C(C)NC(C)=C([N+](=O)[O-])C1c1ccccc1OCCCCN1CCN(c2ccccc2C)CC1 (stereo not shown) [Example 118]	
1000	> 100000	160	COC(=O)C1=C(C)NC(C)=C([N+](=O)[O-])C1c1cccc(OC)c1OCCCCN1CCN(c2ccccc2OC)CC1 (stereo not shown) [Example 110]	0
73	560	490	COc1ccccc1N1CCN(CCOC(=O)C2=C(C)NC(C)=C([N+](=O)[O-])C2c2ccccc2Cl)CC1 (stereo not shown) [Example 5]	100
790	> 100000	610	CCOc1cccc(C2C(C(=O)OC)=C(C)NC(C)=C2[N+](=O)[O-])c1OCCCCN1CCN(c2ccccc2OC)CC1 (stereo not shown) [Example 109]	0
470		990	COc1ccccc1N1CCN(CCCCOc2ccccc2C2C(C(=O)OC(C)(C)C)=C(C)NC(C)=C2[N+](=O)[O-])CC1 (stereo not shown) [Example 146]	
